What was measured:
RAW264.7 [1] = test: Cytotoxicity against mouse RAW264.7 cells assessed as inhibition of cell growth at 30 uM; assay type: toxicity, cell-based; settings: raw264.7, 30 µM
CAL-62 = test: Cytotoxicity against human CAL-62 cells assessed as inhibition of cell growth at 20 uM incubated for 48 hrs by MTT assay; assay type: toxicity, cell-based; settings: cal-62, 48 h
A549 = test: Cytotoxicity against human A549 cells assessed as inhibition of cell growth at 20 uM incubated for 48 hrs by MTT assay; assay type: toxicity, cell-based; settings: a549, 48 h
MCF7 = test: Cytotoxicity against human MCF7 cells assessed as inhibition of cell growth at 20 uM incubated for 48 hrs by MTT assay; assay type: toxicity, cell-based; settings: mcf7, 48 h
HeLa = test: Cytotoxicity against human HeLa cells assessed as inhibition of cell growth at 20 uM incubated for 48 hrs by MTT assay; assay type: toxicity, cell-based
RAW264.7 [2] = test: Antiinflammatory activity in mouse RAW264.7 cells assessed as inhibition of LPS-induced NO production preincubated with compound for 30 mins followed by LPS-stimulation and measured after 24 hrs by Griess assay; assay type: functional, cell-based
K562 = test: Cytotoxicity against human K562 cells assessed as inhibition of cell growth at 20 uM incubated for 48 hrs by MTT assay; assay type: toxicity, cell-based; settings: k562, 48 h
HepG2 = test: Cytotoxicity against human HepG2 cells assessed as inhibition of cell growth at 20 uM incubated for 48 hrs by MTT assay; assay type: toxicity, cell-based; settings: hepg2, 48 h
MKN-45 = test: Cytotoxicity against human MKN-45 cells assessed as inhibition of cell growth at 20 uM incubated for 48 hrs by MTT assay; assay type: toxicity, cell-based; settings: mkn-45, 48 h
HCT-116 = test: Cytotoxicity against human HCT-116 cells assessed as inhibition of cell growth at 20 uM incubated for 48 hrs by MTT assay; assay type: toxicity, cell-based; settings: hct-116, 48 h
5637 = test: Cytotoxicity against human 5637 cells assessed as inhibition of cell growth at 20 uM incubated for 48 hrs by MTT assay; assay type: toxicity, cell-based; settings: human, 5637, 48 h

SMILES	Activity (RAW264.7 [1])	Activity (CAL-62)	Activity (A549)	Activity (MCF7)	Activity (HeLa)	IC50 (RAW264.7 [2])	Activity (K562)	Activity (HepG2)	Activity (MKN-45)	Activity (HCT-116)	Activity 5637
CC(=O)OC[C@@]1(C)CCC[C@]2(COC(C)=O)C3=C(C[C@@H](OC(=O)c4cccnc4)[C@@H]12)C(=O)OC3	Non-Toxic	Non-Toxic	Non-Toxic	Non-Toxic	Non-Toxic	19 µM	Non-Toxic	Non-Toxic	Non-Toxic	Non-Toxic	Non-Toxic
C[C@]1(CO)CCC[C@]2(CO)C3=C(CC[C@@H]12)C(=O)OC3	Non-Toxic	Non-Toxic	Non-Toxic	Non-Toxic	Non-Toxic	21 µM	Non-Toxic	Non-Toxic	Non-Toxic	Non-Toxic	Non-Toxic
CC12CCCC34C5=C(CC(O[C@@H]3OC1)C24)C(=O)OC5	Non-Toxic	Non-Toxic	Non-Toxic	Non-Toxic	Non-Toxic	22 µM	Non-Toxic	Non-Toxic	Non-Toxic	Non-Toxic	Non-Toxic
C[C@]1(CO)CC[C@@H](O)[C@]2(C)C3=C(CC[C@@H]12)C(=O)OC3	Non-Toxic	Non-Toxic	Non-Toxic	Non-Toxic	Non-Toxic	6.1 µM	Non-Toxic	Non-Toxic	Non-Toxic	Non-Toxic	Non-Toxic
CC(=O)OC[C@]12CCCC(C)(C)[C@@H]1[C@H](OC(=O)c1ccccc1)CC1=C2COC1=O	Non-Toxic	Non-Toxic	Non-Toxic	Non-Toxic	Non-Toxic	6.8 µM	Non-Toxic	Non-Toxic	Non-Toxic	Non-Toxic	Non-Toxic
C[C@@H]1C[C@H]2[C@@H]3CCC4=CC(=O)C=C[C@]4(C)[C@@]3(F)[C@@H](O)C[C@]2(C)[C@@]1(O)C(=O)CO [DEXAMETHASONE]						2.6 µM					

Reference: ChEMBL document CHEMBL5360594, “Astellolides R-W, Drimane-Type Sesquiterpenoids from an Aspergillus parasiticus Strain Associated with an Isopod” (J Nat Prod, 2023)
